Laboratory results as given in patent US20140155324A1, “NOVEL PEPTIDES AND USES THEREOF IN THERAPEUTIC METHODS” (TWO TO BIOTECH LTD., priority 2011, published 2014).

What was measured:
Assay type in all cases: in vivo, C57Bl/6 male mice
[1] = system: TNFα; assay: Serum TNFα assay (Bio-Plex); details: mice, 0.25, 1.5 or 15 mg/Kg 3 times a week for 2 weeks; optimal response at 1.5 mg/Kg; FIG. 4A
Method: (§1) Twenty 7-weeks old C57Bl/6 male mice (per experiment) were purchased from Harlan Biotech (Jerusalem, Israel). All mice were maintained in the animal facility room at the company facility. The mice were given standard laboratory chow and water ad libitum and kept in a 12-hour light/dark cycle. All animal experiments were carried out in accordance with the guidelines of the Israeli authority for animal experiments for Care and Use of Laboratory Animals and with the authority specific approval.
(§2) Blood was drawn from each mouse and collected separately in a 1.5 ml vial. After 30 min to 1 hr at room temperature, the clotted blood was centrifuged at 300G for 15 minutes at 4° C. The supernatant was collected to a new 1.5 ml vial and centrifuged again at 300G for 15 minutes. The supernatant was collected to a new 1.5 ml vial and frozen at −70° C. for later analysis. When ready for analysis, the blood vials were quickly thawed in a water bath at room temperature, and then centrifuged at 13,000 G for 10 minutes at 4° C. Samples were analyzed according to the Bio-Plex Pro assay instruction manual using a flat bottom black plate.
(§3) Male CS7Bl/6 mice were divided into four groups of 5 mice each. […]
(§4) At the end of the experiment, TNFα and IL-1β were measured in the mice plasma, and the results are presented in FIGS. 4A and 4B, respectively.

[2] = system: IL-1β; assay: Serum IL-1β assay (Bio-Plex); details: mice, 0.25, 1.5 or 15 mg/Kg 3 times a week for 2 weeks; optimal response at 1.5 mg/Kg; FIG. 4B
Method: as §1, §2, §3, §4

[3] = Glucose tolerance test (GTT) after 2 weeks of treatment; details: mice, 0.25, 1.5 or 15 mg/Kg 3 times a week for 2 weeks; glucose 2 g/Kg i.p., 0-120 min; optimal response at 1.5 mg/Kg; FIG. 1
Method: Twenty 7-weeks old C57Bl/6 male mice (per experiment) were purchased from Harlan Biotech (Jerusalem, Israel). All mice were maintained in the animal facility room at the company facility. The mice were given standard laboratory chow and water ad libitum and kept in a 12-hour light/dark cycle. All animal experiments were carried out in accordance with the guidelines of the Israeli authority for animal experiments for Care and Use of Laboratory Animals and with the authority specific approval. At the end of experiment (two weeks) a glucose tolerance test (GTT) was performed. The mice were starved overnight prior to administration of the test. Glucose was injected intraperitoneally (i.p.) (2 g/Kg body weight) and blood glucose levels were measured at time-points 0 min, 15 min, 30 min, 60 min, 90 min and 120 min. Blood glucose was determined by sampling tail vein blood using a standard glucometer. Male C57131/6 mice were divided into four groups of 5 mice each. The control group (Group I) received 5% Mannitol IV (200 μL 3 times a week). Group II received a dose of APC2 (0.25 mg/Kg body weight) 3 times a week. Group III received a dose of APC2 (1.5 mg/Kg body weight) 3 times a week. Group IV received a dose of APC2 (15 mg/Kg body weight) 3 times a week. The mice were treated for 2 weeks. […]

[4] = Plasma glucagon assay; details: mice, 0.25, 1.5 or 15 mg/Kg 3 times a week for 2 weeks; FIG. 2
Method: as §1
Mice tail vein was punctured and blood glucose was assayed using a standard glucometer.
(§5) Male C57131/6 mice were divided into four groups of 5 mice each. The control group (Group I) received 5% Mannitol IV (200 μL 3 times a week). Group II received a dose of APC2 (0.25 mg/Kg body weight) 3 times a week. Group III received a dose of APC2 (1.5 mg/Kg body weight) 3 times a week. Group IV received a dose of APC2 (15 mg/Kg body weight) 3 times a week. The mice were treated for 2 weeks.
In addition to GTT, the mice plasma glucagon levels were assayed as described in the Methods section.

[5] = system: insulin receptor; assay: Insulin receptor RNA level in splenocytes of treated mice; details: mice, 0.25, 1.5 or 15 mg/Kg 3 times a week for 2 weeks; HPRT control; maximal induction at 1.5 mg/Kg; FIG. 3B
Method: (§6) Mice were sacrificed and dissected. 15-20 mg of appropriate tissue was taken and stabilized in RNA-Save. RNA was extracted from the tissue using an RNeasy mini kit. Homogenization was performed using a 22G needle and syringe. cDNA was prepared from the RNA using EZ-first strand cDNA synthesis kit for RT-PCR. PCR of samples was performed using GoTaq Green Master Mix using appropriate primers (40 cycles, annealing temperature: 62° C.).
as §5
(§7) At the end of the experiment, the mice were sacrificed, the splenocytes were collected from the different mice groups and the RNA levels of HPRT (control), insulin receptor and GLUT4 were assayed.

[6] = system: GLUT-4; assay: GLUT-4 RNA level in splenocytes of treated mice; details: mice, 0.25, 1.5 or 15 mg/Kg 3 times a week for 2 weeks; HPRT control; maximal induction at 1.5 mg/Kg; FIG. 3C
Method: as §6, §5, §7

Row | Substance | TNFα levels [1] | IL-1β levels [2] | glucose tolerance (blood glucose levels after i.p. glucose) [3] | plasma glucagon levels [4] | insulin receptor RNA levels in splenocytes [5] | GLUT4 RNA levels in splenocytes [6]
1 | APC-3: isolated polypeptide of SEQ ID NO. 5, hormone-like protein expressed in human spleen, testis, small intestine, colon and kidney (MSSFCLALEVFHPTVSSGRSRPYQIASLETPVLNYSFHHRR; Homo sapiens APC3) | reduced both inflammatory cytokines levels in a dose-dependent manner | reduced both inflammatory cytokines levels in a dose-dependent manner |  |  |  | 
2 | APC-2: isolated polypeptide of SEQ ID NO. 1, hormone-like protein expressed in human heart and lymphocytes (MITSWFSLLPGSQEATATPPFPVVAGRKH; Homo sapiens APC2) |  |  | improved glucose tolerance in a dose-dependent manner | reduced in a dose-dependent manner | up-regulated | up-regulated
